This passage reports SOC/CRAC-enhanced calcium influx results from patent publication US7063959B1, “Compositions of the SOC/CRAC calcium channel protein family” (priority 1998, dated 2006).

In this experiment the test system is SOC/CRAC calcium channel. Kind of experiment: Pharmacologic behavior of SOC/CRAC: calcium influx elicited by store depletion (fura-2) in SOC/CRAC-expressing cells. Format: cell-based. The note with it: SOC/CRAC expressed in RBL-2H3 mast cells by recombinant vaccinia virus; stores depleted with thapsigargin; cells pre-incubated with reagent; effect substantially the same as on endogenous thapsigargin-dependent calcium influx.

Regarding `CCCCCCCCCCCCC/C=C/[C@@H](O)[C@@H](N)CO` [sphingosine, Sphingosine], the SOC/CRAC-enhanced calcium influx result was “inhibited”.
